For test [1], the target named is FGFR1 (Homo sapiens, UniProt P11362). The experiment in a line: FGFR1 kinase activity inhibition (Caliper mobility shift assay). The test is classed as biochemical. The note with it: read-out: FGFR kinase activity inhibition (IC50, nM) FGFR1. On the procedure: (§1) 1. FGFR1, FGFR2, FGFR3, and FGFR4 Kinase Activity Inhibition Experiments The FGFR1, FGFR2, FGFR3, and FGFR4 protein kinase activities were measured using the Caliper mobility shift assay. Compounds were solubilized in DMSO and diluted in kinase buffer. 5 µL of compound at 5 times final concentration (10% DMSO) was added to a 384-well plate. 10 μL of a 2.5-fold enzyme (FGFR1, FGFR2, FGFR3, and FGFR4, respectively) solution was added and incubated at room temperature for 10 minutes, followed by the addition of […] of a 2.5-fold substrate (FAM-labeled peptide and ATP) solution. The reaction was incubated for 30-60 minutes at 28° C., then stopped by adding 25 μL of stop solution (pH 7.5 100 mM HEPES, 0.015% Brij-35, 0.2% Coating Reagent #3, 50 mM EDTA). Conversion data was read on the Caliper EZ Reader II (Caliper Life Sciences). The conversion rate was converted into inhibition rate (% inhibition rate=(max−sample conversion rate)/(max−min)*100). Where max refers to the conversion of the DMSO control and min refers to the conversion of the non-enzymatic live control. With the compound concentration and inhibition rate plotted on the abscissa and the vertical axis, the curve was fitted using XLFit excel add-in version 4.3.1 software and the IC50 was calculated.

For test [2], the target named is FGFR3 (Homo sapiens, UniProt P22607). Put plainly: FGFR3 kinase activity inhibition (Caliper mobility shift assay). The test is classed as biochemical. The note with it: read-out: FGFR kinase activity inhibition (IC50, nM) FGFR3. The procedure: as §1
Test [3] has as its target FGFR2 (Homo sapiens, UniProt P21802). The experiment in a line: FGFR2 kinase activity inhibition (Caliper mobility shift assay). The test is classed as biochemical. The note with it: read-out: FGFR kinase activity inhibition (IC50, nM) FGFR2. The procedure:
as §1

Test [4] addresses FGFR4 (Homo sapiens, UniProt P22455). Put plainly: FGFR4 kinase activity inhibition (Caliper mobility shift assay). The test is classed as biochemical. The note with it: read-out: FGFR kinase activity inhibition (IC50, nM) FGFR4. The procedure:
as §1

Test [5] deals with SNU-16 tumor cells. Put plainly: Inhibition test against SNU-16 tumor cell proliferation (CTG). The test is classed as cell-based. The note with it: Homo sapiens, 72 hours drug treatment, CTG readout, read-out: Inhibits of SNU-16 tumor cells proliferation (IC50, nM) SNU-16. On the procedure:
2. Compounds' Inhibition Test Against SNU-16 Tumor Cell Proliferation
SNU-16 cell suspension was adjusted to 5.56×10e4/mL with RPMI 1640 medium. Add 90 μL of cell suspension to 96-well cell culture plates per well for a final cell concentration of 5000 cells/well. The test compound was dissolved in DMSO as a 10 mM stock solution. The 3× series of serial dilutions were prepared with stock and DMSO and then diluted 100-fold with media. Finally, 10 μL of the corresponding 10× solution was added to each well of each cell, and each drug concentration was 2 replicates. The final concentration of each compound was 1000 nM, 333.3 nM, 111.1 nM, 37.04 nM, 12.35 nM, 4.115 nM, 1.372 nM, 0.457 nM, 0.152 nM, the final concentration of DMSO per well is 0.1%. Place in a 37° C., 5% CO2 incubator for 72 hours. After 72 hours of drug treatment, add 50 μL (1/2 culture volume) of CTG solution that has been previously thawed and equilibrated to room temperature per well according to CTG instructions, mix for 2 minutes using a microplate shaker, and allow to stand at room temperature for 10 minutes. The Envision 2104 reader was used to determine the […] signal value. Cell viability formula: Vsample/Vvehicle control×100% for calculation. Wherein Vsample is the reading of the drug treatment group and, Vvehicle control is the average of the solvent control group. Using the GraphPad Prism 5.0 software, a sigmoidal dose-survival curve was plotted using a non-linear regression model and IC50 values were calculated.

Chain of FGFR2 (P21802 22-821): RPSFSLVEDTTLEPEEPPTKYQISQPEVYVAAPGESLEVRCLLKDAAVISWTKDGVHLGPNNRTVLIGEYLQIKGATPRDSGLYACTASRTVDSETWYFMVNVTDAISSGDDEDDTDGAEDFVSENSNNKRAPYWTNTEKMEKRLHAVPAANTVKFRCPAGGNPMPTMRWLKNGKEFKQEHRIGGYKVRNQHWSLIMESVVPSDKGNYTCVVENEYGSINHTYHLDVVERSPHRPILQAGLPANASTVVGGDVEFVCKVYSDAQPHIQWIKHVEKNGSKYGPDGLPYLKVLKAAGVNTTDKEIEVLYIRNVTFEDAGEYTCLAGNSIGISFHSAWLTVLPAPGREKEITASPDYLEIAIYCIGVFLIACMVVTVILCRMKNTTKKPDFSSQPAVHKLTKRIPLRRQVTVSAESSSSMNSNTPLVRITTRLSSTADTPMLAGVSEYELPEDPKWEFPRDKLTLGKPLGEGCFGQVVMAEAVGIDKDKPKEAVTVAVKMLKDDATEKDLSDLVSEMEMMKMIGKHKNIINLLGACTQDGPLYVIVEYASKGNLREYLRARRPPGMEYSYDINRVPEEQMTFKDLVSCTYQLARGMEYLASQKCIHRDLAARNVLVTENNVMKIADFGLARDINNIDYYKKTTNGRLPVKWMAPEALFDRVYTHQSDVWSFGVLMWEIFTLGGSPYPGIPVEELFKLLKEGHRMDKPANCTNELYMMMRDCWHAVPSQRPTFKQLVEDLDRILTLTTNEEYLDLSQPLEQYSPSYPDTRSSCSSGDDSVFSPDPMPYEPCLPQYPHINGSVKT
Chain of FGFR4 (P22455 22-802): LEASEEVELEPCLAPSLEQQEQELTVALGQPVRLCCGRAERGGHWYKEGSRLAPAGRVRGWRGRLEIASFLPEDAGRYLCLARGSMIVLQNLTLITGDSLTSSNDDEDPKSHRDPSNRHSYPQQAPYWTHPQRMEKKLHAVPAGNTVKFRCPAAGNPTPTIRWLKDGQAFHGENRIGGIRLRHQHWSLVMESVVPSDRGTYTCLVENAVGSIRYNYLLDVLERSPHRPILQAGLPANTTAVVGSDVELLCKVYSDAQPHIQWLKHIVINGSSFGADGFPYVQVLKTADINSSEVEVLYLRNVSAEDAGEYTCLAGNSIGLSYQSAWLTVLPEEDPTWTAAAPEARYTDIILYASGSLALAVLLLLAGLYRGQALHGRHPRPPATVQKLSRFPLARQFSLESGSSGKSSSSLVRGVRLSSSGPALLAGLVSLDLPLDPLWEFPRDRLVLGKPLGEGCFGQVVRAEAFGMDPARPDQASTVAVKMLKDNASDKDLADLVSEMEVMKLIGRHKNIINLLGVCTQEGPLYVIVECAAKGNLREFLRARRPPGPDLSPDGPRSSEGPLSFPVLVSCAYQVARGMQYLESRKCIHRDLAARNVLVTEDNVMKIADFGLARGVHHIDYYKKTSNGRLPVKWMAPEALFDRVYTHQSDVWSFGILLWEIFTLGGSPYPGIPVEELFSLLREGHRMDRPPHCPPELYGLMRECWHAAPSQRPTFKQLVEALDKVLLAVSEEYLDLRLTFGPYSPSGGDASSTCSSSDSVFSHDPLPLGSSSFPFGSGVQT
Chain of FGFR1 (P11362 22-822): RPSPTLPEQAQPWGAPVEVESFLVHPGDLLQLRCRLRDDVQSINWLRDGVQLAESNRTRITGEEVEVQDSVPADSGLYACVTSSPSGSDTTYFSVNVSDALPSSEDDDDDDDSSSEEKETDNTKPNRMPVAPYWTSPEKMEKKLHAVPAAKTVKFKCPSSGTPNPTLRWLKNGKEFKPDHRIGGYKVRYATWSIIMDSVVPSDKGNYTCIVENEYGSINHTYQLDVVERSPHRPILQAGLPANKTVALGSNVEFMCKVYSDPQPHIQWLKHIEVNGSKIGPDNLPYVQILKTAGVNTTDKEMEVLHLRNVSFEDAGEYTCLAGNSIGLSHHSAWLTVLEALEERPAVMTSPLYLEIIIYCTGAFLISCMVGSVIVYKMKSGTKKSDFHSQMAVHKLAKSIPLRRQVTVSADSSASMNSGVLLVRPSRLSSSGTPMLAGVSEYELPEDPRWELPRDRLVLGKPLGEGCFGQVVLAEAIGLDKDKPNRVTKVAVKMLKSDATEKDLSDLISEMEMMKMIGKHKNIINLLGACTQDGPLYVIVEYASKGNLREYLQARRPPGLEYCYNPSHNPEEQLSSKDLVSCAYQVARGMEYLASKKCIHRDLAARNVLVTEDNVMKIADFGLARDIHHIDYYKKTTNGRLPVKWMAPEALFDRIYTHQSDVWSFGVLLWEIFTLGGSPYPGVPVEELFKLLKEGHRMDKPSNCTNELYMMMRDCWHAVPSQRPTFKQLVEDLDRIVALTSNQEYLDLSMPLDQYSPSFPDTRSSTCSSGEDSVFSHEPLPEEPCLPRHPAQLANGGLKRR
Chain of FGFR3 (P22607 23-806): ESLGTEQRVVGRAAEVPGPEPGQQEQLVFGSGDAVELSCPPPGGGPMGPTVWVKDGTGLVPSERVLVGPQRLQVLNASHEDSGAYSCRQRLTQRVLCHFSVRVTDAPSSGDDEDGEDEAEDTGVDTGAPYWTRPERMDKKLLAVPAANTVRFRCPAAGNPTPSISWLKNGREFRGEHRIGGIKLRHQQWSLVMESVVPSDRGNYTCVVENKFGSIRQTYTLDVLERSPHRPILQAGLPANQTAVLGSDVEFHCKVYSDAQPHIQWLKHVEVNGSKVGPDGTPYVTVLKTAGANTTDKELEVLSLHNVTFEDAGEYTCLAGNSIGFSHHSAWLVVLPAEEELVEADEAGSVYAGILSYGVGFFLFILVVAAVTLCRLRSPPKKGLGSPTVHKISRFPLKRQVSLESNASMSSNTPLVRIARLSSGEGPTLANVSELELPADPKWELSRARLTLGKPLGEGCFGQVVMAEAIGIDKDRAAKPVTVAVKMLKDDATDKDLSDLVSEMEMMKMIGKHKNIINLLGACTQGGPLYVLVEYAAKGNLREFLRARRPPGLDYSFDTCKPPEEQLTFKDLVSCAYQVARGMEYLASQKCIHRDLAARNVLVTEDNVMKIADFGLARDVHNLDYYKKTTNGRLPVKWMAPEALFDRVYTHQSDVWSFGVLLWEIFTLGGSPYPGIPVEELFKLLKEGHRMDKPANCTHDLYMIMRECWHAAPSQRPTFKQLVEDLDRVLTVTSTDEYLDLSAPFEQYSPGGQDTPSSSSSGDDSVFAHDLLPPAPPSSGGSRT

For `COc1cc(OC)c(Cl)c(NC(=O)N(C)c2cc(Nc3ccc4c(c3)OCCN(C)CCO4)ncn2)c1Cl` [Compound 1], the IC50 in test [1] and in test [2] was < 20 nM in each case.
For the compound `COc1cc(OC)c(Cl)c(NC(=O)N(C)c2cc(Nc3ccc4c(c3)OC[C@H]3CN(C)CCN43)ncn2)c1Cl` [Compound 2R], the IC50 in test [1] was < 10 nM; in test [3], < 10 nM; in test [2], < 10 nM; in test [4], < 200 nM; in test [5] it was < 10 nM.
`COc1cc(OC)c(Cl)c(NC(=O)N(C)c2cc(Nc3ccc4c(c3)OC[C@@H]3CN(C)CCN43)ncn2)c1Cl` [Compound 2S]: the IC50 was < 10 nM in test [1]; < 10 nM in test [3]; < 10 nM in test [2]; < 200 nM in test [4]; < 10 nM in test [5].
Regarding `COc1cc(OC)c(Cl)c(NC(=O)N(C)c2cc(Nc3ccc4c(c3)OCC3CN(C)CCN43)ncn2)c1Cl` (stereo not shown) [Compound 2], the IC50 in test [1] and in test [2] was < 10 nM throughout.
As for `COc1cc(OC)c(Cl)c(NC(=O)N(C)c2cc(Nc3ccc(N4CC5CN(C)CC(C4)C5(F)F)cc3)ncn2)c1Cl` [Compound 3], the IC50 in test [1], in test [2] and in test [5] was < 10 nM in each case.
Consider `CCN1CCN2c3ccc(Nc4cc(N(C)C(=O)Nc5c(Cl)c(OC)cc(OC)c5Cl)ncn4)cc3OC[C@H]2C1` [Compound 4R], for which the IC50 in test [1] and in test [3] was < 10 nM each time.
As to `CCN1CCN2c3ccc(Nc4cc(N(C)C(=O)Nc5c(Cl)c(OC)cc(OC)c5Cl)ncn4)cc3OC[C@@H]2C1` [Compound 4S], the IC50 in test [1] is < 10 nM; in test [3], < 10 nM; in test [2] it was < 10 nM; in test [4] it was < 200 nM; in test [5], < 10 nM.
For `C=CC(=O)Nc1cc2c(cc1Nc1cc(N(C)C(=O)Nc3c(Cl)c(OC)cc(OC)c3Cl)ncn1)OC[C@@H]1CN(C)CCN21` [Compound 5S], the IC50 in test [1] is > 1000 nM; in test [3], > 1000 nM; in test [2] it was > 1000 nM; in test [4] it was < 20 nM.
On to `COc1cc(OC)c(Cl)c(NC(=O)N(C)c2cc(Nc3ccc4c(c3)OC[C@H]3CN(C5CC5)CCN43)ncn2)c1Cl` [Compound 6R], for which the IC50 was < 20 nM in test [1] and < 50 nM in test [3].
For `COc1cc(OC)c(Cl)c(NC(=O)N(C)c2cc(Nc3ccc4c(c3)OC[C@H]3CN(C(C)=O)CCN43)ncn2)c1Cl` [Compound 7R] the same measures were < 10 nM and < 10 nM.
`COc1cc(OC)c(Cl)c(NC(=O)N(C)c2cc(Nc3ccc4c(c3)OC[C@H]3COCCN43)ncn2)c1Cl` [Compound 8R]: the IC50 in test [1] and in test [3] was < 20 nM in each case.
On to `COc1cc(OC)c(Cl)c(NC(=O)N(C)c2cc(Nc3ccc4c(c3)OC[C@H]3CN(C)CC(=O)N43)ncn2)c1Cl` [Compound 9R], for which the IC50 in test [1] and in test [3] was < 10 nM in each case.
Take `CCS(=O)(=O)N1CCN2c3ccc(Nc4cc(N(C)C(=O)Nc5c(Cl)c(OC)cc(OC)c5Cl)ncn4)cc3OC[C@H]2C1` [Compound 10R]: the IC50 in test [1] and in test [3] was < 50 nM each time.
`C=CC(=O)Nc1ccc(CN(C(=O)Nc2c(Cl)c(OC)cc(OC)c2Cl)c2cc(Nc3ccc4c(c3)OC[C@@H]3CN(C)CCN43)ncn2)cc1` [Compound 11S]: the IC50 in test [1] was < 50 nM; in test [4], < 200 nM.
